Series [1] concerns the target T1, CYP2C8 (Homo sapiens, UniProt P10632).
T1 construct: from tissue; host or cells: pooled human liver microsomes
T1 sequence (P10632 1-490): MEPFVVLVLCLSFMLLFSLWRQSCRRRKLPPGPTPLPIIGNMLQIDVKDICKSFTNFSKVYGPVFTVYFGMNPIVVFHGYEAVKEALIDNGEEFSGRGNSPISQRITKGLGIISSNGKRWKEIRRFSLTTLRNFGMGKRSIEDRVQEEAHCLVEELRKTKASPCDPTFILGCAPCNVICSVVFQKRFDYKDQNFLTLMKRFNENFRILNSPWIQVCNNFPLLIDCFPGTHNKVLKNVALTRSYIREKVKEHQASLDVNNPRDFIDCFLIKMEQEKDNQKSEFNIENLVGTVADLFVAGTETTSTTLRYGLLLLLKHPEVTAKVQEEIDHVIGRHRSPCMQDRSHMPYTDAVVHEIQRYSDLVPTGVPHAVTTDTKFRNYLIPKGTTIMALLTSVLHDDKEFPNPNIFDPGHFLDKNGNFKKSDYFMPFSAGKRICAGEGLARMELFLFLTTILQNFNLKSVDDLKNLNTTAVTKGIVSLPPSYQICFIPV
As to the kind of experiment: Direct CYP inhibition assay, pooled human liver microsomes, LC-MS/MS. To be noted: pooled HLMs, up to 50 μM, amodiaquine substrate. The series is classed as in vitro ADME. Here is the method: Reactions were incubated in eight-well strips placed in an 8 × 12 racks (1.2 ml; VWR, Emeryville, CA). The incubation mixtures (final volume, 200 μL) contained 0.2 mg/mL HLMs, 0.1 M phosphate buffer (pH 7.4), 1 mM NADPH, and various CYP isoform-specific substrate cocktail sets (A set: phenacetin, coumarin, amodiaquine, S-mephenytoin, dextromethorphan, and midazolam; B set: bupropion, tolbutamide, chlorzoxazone, and testosterone). […] Substrates were dissolved and serially diluted with acetonitrile to the required concentration in all experiments. […] The reactions were incubated at 37 °C in a shaking water bath. The reactions were terminated by placing the incubation tubes on ice, adding 200 μL of cold acetonitrile containing carbamazepine (100 nM) and 4-methylumbelliferone (500 nM) as an internal standard after 10 min, and agitating with a vortex mixer before centrifugation. The samples for each enzyme assay were centrifuged at 3,000 × g for 20 min at 4 °C, and supernatants of the individual reaction samples and pooled cocktail incubation samples (A set: B set, 1:1) were analysed using LC-MS/MS.
Sample injection volume was 10 μL, and separation was performed on an Atlantis™ dC18 column (2.1 × 50 mm i.d., 3 μm; Waters, Milford, MA, USA) and Luna™5u C18 column (2.0 × 30 mm i.d.; Phenomenex, Torrance, CA, USA) with a SecurityGuard™ C18 guard column (2.0 × 4.0 mm i.d.; Phenomenex, Torrance, CA, USA) maintained at 30 °C. The column was pre-equilibrated in 100% v/v solvent A (deionized water containing 0.1% v/v formic acid)/0% v/v solvent B (acetonitrile containing 0.1% v/v formic acid) at a flow rate of 0.4 ml/min. […] Quadrupoles Q1 and Q3 were set on unit resolution. The samples were analysed via multiple reaction monitoring (MRM) and enhanced product ion (EPI) scan mode. The turbo ion spray interface was operated in the positive ion mode at 5,500 V. The operating conditions were determined as follows: ion source temperature, 600 °C; nebulising gas flow, 50 L/min; auxiliary gas flow, 4.0 L/min; curtain gas flow, 20 L/min; collision gas (nitrogen) pressure 3.6 × 10^−5 Torr. Nitrogen gas was used for CUR, CAD, and NEB. The MRM transitions, collision energies and retention time were determined for each metabolite. The samples were analysed via MRM as described in our previous study. The scan dwell time was set at 0.08 s for every channel. Data acquisition and analysis was performed using the Analyst™ software (version 1.5.2; Applied Biosystems, Foster City, CA, USA).
(In general: Liver microsomes are vesicles of endoplasmic reticulum, rich in cytochrome P450 enzymes.)

Series [2] addresses purified CYP3A4 (Homo sapiens, UniProt P08684). As to the kind of experiment: Spectral binding titration of purified CYP3A4. To be noted: Type I or Type II spectral change.
Experimental: Purified CYP3A4 enzymes were diluted to 1 µM in 100 mM potassium phosphate buffer (pH 7.4) and then divided into two glass cuvettes. […] The binding titration was analysed using GraphPad Prism software (GraphPad, Inc., La Jolla, CA, USA).
The test system of series [3] is IP3K. To be noted: [ATP] = 10 μM; cited from earlier work.

Molecules are shown by their SMILES.

purified CYP3A4, sequence (P08684 whole entry): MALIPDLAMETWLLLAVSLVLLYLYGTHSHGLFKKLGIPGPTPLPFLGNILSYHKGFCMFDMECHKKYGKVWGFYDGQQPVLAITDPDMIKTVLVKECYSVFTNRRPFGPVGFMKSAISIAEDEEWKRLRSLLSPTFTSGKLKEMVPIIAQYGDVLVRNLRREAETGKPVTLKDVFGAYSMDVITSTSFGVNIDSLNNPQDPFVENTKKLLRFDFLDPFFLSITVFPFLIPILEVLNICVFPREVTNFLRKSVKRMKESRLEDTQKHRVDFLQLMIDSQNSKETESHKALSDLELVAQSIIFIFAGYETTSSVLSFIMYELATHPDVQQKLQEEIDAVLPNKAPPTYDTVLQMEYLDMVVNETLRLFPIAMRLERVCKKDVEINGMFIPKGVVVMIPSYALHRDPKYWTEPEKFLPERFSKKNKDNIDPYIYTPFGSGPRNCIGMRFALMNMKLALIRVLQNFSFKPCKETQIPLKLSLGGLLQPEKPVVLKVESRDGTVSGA

In the case of `O=[N+]([O-])c1ccc(CNc2nc(NCc3cccc(C(F)(F)F)c3)nc3[nH]cnc23)cc1` [TNP, N^6-[(4-nitrophenyl)methyl]-N^2-[[3-(trifluoromethyl)phenyl]methyl]-9H-purine-2,6-diamine], the “inhibitory effect on CYP2C8” value in series [1] is “no inhibitory effect”. Further, in series [2], the CYP3A4 binding mode result was “Type I”. The half-maximal inhibitory concentration (IC50) in series [3] is 18 µM.

The IC50 is the midpoint of a concentration-inhibition curve.

(Values after PMC8667942 (Journal of Enzyme Inhibition and Medicinal Chemistry, 2021).)
